In publication PMC8430629, “Anti-Cancer Effects of Cyclic Peptide ALOS4 in a Human Melanoma Mouse Model” (International Journal of Molecular Sciences, 2021):
Where a SMILES comes first, the peptide text is derived from it.

Legend:
[1] = Formulation stability, saline vs saline with 0.1% Tween-80; format: physicochemical; conditions: 0.5-5000 pmol/µL, 60 min, room temperature (25 °C), polypropylene tubes, LC-MS, n = 3
Method: (§1) Adhesiveness to inert materials was measured for ALOS4 0.9% NaCl(aq) solution in concentrations of 1, 3 10, 30, or 100 µM and incubated in standard laboratory polypropylene microtubes for 60 min at room temperature. Solutions were transferred to either polypropylene LC vials or borosilicate glass LC vials. Optimal formulation stability of ALOS4 was analyzed in either saline solution (0.9% NaCl) or saline solution containing 0.1% tween 80 (polysorbate; Sigma-Aldrich, Cat#P1754, Darmstadt, Germany) at concentrations of 0.5, 5, 50, 500, or 5000 pmol/µL. Solutions were incubated in standard polypropylene tubes for 60 min at room temperature. Acid/base stability was measured for ALOS4 formulated in saline at a concentration of 10 µM and incubated for 1 or 24 h at 3.4, 4.4, 5.4, 6.4, 7.4, or 9.4 pH at temperatures of 4, 25, or 37 °C. Recovery of ALOS4 following these materials assays was assessed by LC-MS.

ICR mice [2] = test: Repeated IV dose toxicity assessment in cancer-free ICR mice
Method: Acute single or repeated doses of ALOS4 at 10, 30, 90, 180, or 360 mg/kg were administered intravenously to uninoculated (nominally cancer-free) ICR mice. Body weight, rectal temperature, and survival were evaluated for 14 days following injections. Mice were also evaluated for locomotory and anxiety-like behaviors (open-field and EPM) on treatment day 14.

ICR mice [3] = test: Plasma biochemistry after single IV dose; format: in vivo; conditions: 24 h, mean, n = 5; for Total Bilirubin: normal range 0.16–0.32; for Creatinine: normal range 0.2–0.4; for Globulin: normal range 1.4–2.0; for Alb: normal range 3.3–4.0; for TP: normal range 4.7–5.8; for Phosphorus: normal range 6.4–11.3; for Calcium: normal range 9.8–10.8; for Urea: normal range 39–62; for Cholesterol: normal range 56–133; for Glucose: normal range 169–282
Method: (§2) ICR mice were treated with single IV injections of ALOS4 (30, 90, or 180 mg/kg) and blood samples were collected at 24 h post-injection to EDTA and serum tubes. Complete blood cell count (CBC) and blood chemistry analyses were performed for saline and ALOS4 treatment groups at a certified animal laboratory (Herzliya Medical Center, Herzliya, Israel).

ICR mice [4] = test: Complete blood count after single IV dose; format: in vivo; conditions: for RBC / HGB / MCH / MCHC / Hematocrit / MCV / Platelets / WBC: mean, n = 5; for RBC: normal range 7.31–10.03; for HGB: normal range 13.1–16.2; for MCH: normal range 15–18; for MCHC: normal range 33.7–36.4; for Hematocrit: normal range 36.8–48.7; for MCV: normal range 46.0–50.9; for Platelets: normal range 674–1675; for WBC: blood 24 h post-injection, normal range 6.5–24.5
Method: as §2

[5] = Acid/base and temperature stability; format: physicochemical; conditions: 10 µM in saline, pH 3.4, 4.4, 5.4, 6.4, 7.4, 9.4; 4, 25, 37 °C; 1 or 24 h; polypropylene tubes, LC-MS, n = 3
Method: as §1

ICR mice [6] = test: Open field test; format: in vivo
Method: To evaluate the effect of ALOS4 on mouse locomotor activity, we used the open field (OF) behavioral test. This assay consists of an arena (30 × 40 cm) with no grid markings and uses an infrared imaging system. […] Each mouse was placed individually in the center of the arena and evaluated for 6 min. Arena center dwell time versus arena border dwell time, as well as total traveled distance, were recorded.

SMILES: CC(C)C[C@@H]1NC(=O)[C@H](CO)NC(=O)CNC(=O)[C@H](C)NC(=O)[C@H](CO)NC(=O)[C@H](CO)NC(=O)[C@@H](N)CSSC[C@@H](C(=O)O)NC(=O)[C@H](Cc2ccccc2)NC1=O [ALOS4, H-cycl(Cys-Ser-Ser-Ala-Gly-Ser-Leu-Phe-Cys)-OH] (HELM PEPTIDE1{C.S.S.A.G.S.L.F.C}$PEPTIDE1,PEPTIDE1,1:R3-9:R3$$$V2.0)
- reduction of peptide stability in saline containing 0.1% Tween-80 vs 0.9% NaCl only [1]: 1.2 fold
- weight-gain (ICR mice [2]; IV every other day over 21 days (ten doses), 10, 30, 90, 180, 360 mg/kg, n = 5, vs control): no alterations in weight-gain
- body temperature (ICR mice [2]; IV every other day over 21 days, 10-360 mg/kg, rectal, 30 min after injection, n = 5): no alterations
- necropsy assessment for organ damage (ICR mice [2]; histology of liver, spleen, kidney, lungs, brain, repeated IV 10-360 mg/kg): did not reveal any overt signs of tissue damage or inflammation
- 21-day survival (ICR mice [2]; maximum tested repeated IV dose 360 mg/kg, n = 5): 100%
- clinical signs (ICR mice [2]; repeated IV 10-360 mg/kg): No adverse overt clinical signs were observed
- Total Bilirubin (ICR mice [3]; single IV 30 mg/kg): 0.11 ± 0.02 mg/dL
- Creatinine (ICR mice [3]; single IV 30 mg/kg): 0.26 ± 0.014 mg/dL
- Globulin (ICR mice [3]; single IV 30 mg/kg): 1.87 ± 0.07 g/dL
- Alb (ICR mice [3]; single IV 30 mg/kg): 4.3 ± 0.14 g/dL
- TP (ICR mice [3]; single IV 30 mg/kg): 6.17 ± 0.18 g/dL
- Phosphorus (ICR mice [3]; single IV 30 mg/kg): 8.6 ± 0.56 mg/dL
- Calcium (ICR mice [3]; single IV 30 mg/kg): 10.29 ± 0.11 mg/dL
- Urea (ICR mice [3]; single IV 30 mg/kg): 46.08 ± 1.7 mg/dL
- Cholesterol (ICR mice [3]; single IV 30 mg/kg): 108.2 ± 9.5 mg/dL
- Glucose (ICR mice [3]; single IV 30 mg/kg): 169.8 ± 6.9 mg/dL
- Total Bilirubin (ICR mice [3]; single IV 90 mg/kg): 0.14 ± 0.02 mg/dL
- Creatinine (ICR mice [3]; single IV 90 mg/kg): 0.25 ± 0.06 mg/dL
- Globulin (ICR mice [3]; single IV 90 mg/kg): 2.02 ± 0.07 g/dL
- Alb (ICR mice [3]; single IV 90 mg/kg): 4.3 ± 0.06 g/dL
- TP (ICR mice [3]; single IV 90 mg/kg): 6.32 ± 0.13 g/dL
- Phosphorus (ICR mice [3]; single IV 90 mg/kg): 9.53 ± 0.4 mg/dL
- Calcium (ICR mice [3]; single IV 90 mg/kg): 10.38 ± 0.29 mg/dL
- Urea (ICR mice [3]; single IV 90 mg/kg): 48.23 ± 3.2 mg/dL
- Cholesterol (ICR mice [3]; single IV 90 mg/kg): 142.25 ± 13.7 mg/dL
- Glucose (ICR mice [3]; single IV 90 mg/kg): 170.75 ± 10.7 mg/dL
- Total Bilirubin (ICR mice [3]; single IV 180 mg/kg): 0.11 ± 0.03 mg/dL
- Creatinine (ICR mice [3]; single IV 180 mg/kg): 0.27 ± 0.02 mg/dL
- Globulin (ICR mice [3]; single IV 180 mg/kg): 1.59 ± 0.4 g/dL
- Alb (ICR mice [3]; single IV 180 mg/kg): 4.36 ± 0.024 g/dL
- TP (ICR mice [3]; single IV 180 mg/kg): 6.28 ± 0.09 g/dL
- Phosphorus (ICR mice [3]; single IV 180 mg/kg): 8.44 ± 0.75 mg/dL
- Calcium (ICR mice [3]; single IV 180 mg/kg): 10.42 ± 0.1 mg/dL
- Urea (ICR mice [3]; single IV 180 mg/kg): 46.02 ± 3.9 mg/dL
- Cholesterol (ICR mice [3]; single IV 180 mg/kg): 141.8 ± 9.1 mg/dL
- Glucose (ICR mice [3]; single IV 180 mg/kg): 183.2 ± 14.3 mg/dL
- decrease in WBC count (ICR mice [4]; ICR mice, single IV 180 mg/kg, 24 h): 40%
- RBC (ICR mice [4]; single IV 30 mg/kg, 24 h): 9.16 ± 0.3 10^6/µL
- HGB (ICR mice [4]; single IV 30 mg/kg, 24 h): 14.3 ± 0.6 g/dL
- MCH (ICR mice [4]; single IV 30 mg/kg, 24 h): 15.6 ± 0.2 pg
- MCHC (ICR mice [4]; single IV 30 mg/kg, 24 h): 32.54 ± 0.23 g/dL
- Hematocrit (ICR mice [4]; single IV 30 mg/kg, 24 h): 43.96 ± 1.9%
- MCV (ICR mice [4]; single IV 30 mg/kg, 24 h): 47.96 ± 0.6 fL
- Platelets (ICR mice [4]; single IV 30 mg/kg, 24 h): 582.4 ± 132 10^3/µL
- WBC (ICR mice [4]; single IV 30 mg/kg): 4.51 ± 1.3 10^3/µL
- RBC (ICR mice [4]; single IV 90 mg/kg, 24 h): 9.78 ± 0.3 10^6/µL
- HGB (ICR mice [4]; single IV 90 mg/kg, 24 h): 15.42 ± 0.5 g/dL
- MCH (ICR mice [4]; single IV 90 mg/kg, 24 h): 15.76 ± 0.15 pg
- MCHC (ICR mice [4]; single IV 90 mg/kg, 24 h): 32.2 ± 0.4 g/dL
- Hematocrit (ICR mice [4]; single IV 90 mg/kg, 24 h): 47.88 ± 1.1%
- MCV (ICR mice [4]; single IV 90 mg/kg, 24 h): 48.96 ± 0.24 fL
- Platelets (ICR mice [4]; single IV 90 mg/kg, 24 h): 770.2 ± 189 10^3/µL
- WBC (ICR mice [4]; single IV 90 mg/kg): 6.07 ± 1.2 10^3/µL
- RBC (ICR mice [4]; single IV 180 mg/kg, 24 h): 8.02 ± 0.6 10^6/µL
- HGB (ICR mice [4]; single IV 180 mg/kg, 24 h): 13.2 ± 1.04 g/dL
- MCH (ICR mice [4]; single IV 180 mg/kg, 24 h): 16.42 ± 0.2 pg
- MCHC (ICR mice [4]; single IV 180 mg/kg, 24 h): 32.88 ± 0.4 g/dL
- Hematocrit (ICR mice [4]; single IV 180 mg/kg, 24 h): 40.12 ± 3.15%
- MCV (ICR mice [4]; single IV 180 mg/kg, 24 h): 49.96 ± 0.32 fL
- Platelets (ICR mice [4]; single IV 180 mg/kg, 24 h): 661.8 ± 160.5 10^3/µL
- WBC (ICR mice [4]; single IV 180 mg/kg): 3.2 ± 0.06 10^3/µL
- stability (recoverability) [5]: 90–100%
- total traveled distance, open field (ICR mice [6]; IV acute single dose 180 mg/kg, n = 5, Bonferroni p = 0.0329): only an exception for total traveled distance
- locomotor activity, open field (ICR mice [6]; IV acute single dose 30, 90, 180 mg/kg, n = 5, central arena dwell time): did not affect locomotor activity in general
